Reference: patent publication US20230338398A1, “USE OF DELTA-8-THC TO TREAT INFLAMMATORY AND AUTOIMMUNE DISEASES” (UNIVERSITY OF SOUTH CAROLINA, priority 2022, published 2023)
“Also recorded” adds a separate entry of the source.

Legend:
[1] = tested on: Experimental Autoimmune Encephalomyelitis (EAE); assay: Experimental Autoimmune Encephalomyelitis (EAE) model: clinical score and body weight; type: in vivo; conditions: EAE C57BL/6 mice, 10 mg/kg intraperitoneally every day from day 10, vs vehicle
Protocol: 6-8 weeks old Female C57BL/6 mice were purchased from Jackson Laboratory (Bar Harbor, ME). Animals colonies were maintained in accordance with Federal regulations and guidelines set by the animal facility of the University of South Carolina Institutional Animal Care and Use Committee (IACUC). Mice were housed in a single room under controlled temperature (22° C.), identical SPF, 50% relative humidity, and photoperiods (12:12 hours light/dark cycle). Animals were allowed unlimited access (ad libitum feeding) to autoclaved drinking water and a standard irradiated soy-free mouse chow. The health of the animals was monitored daily by the veterinarian in the animal facility.
EAE is a model for human Multiple Sclerosis. EAE was induced in 6-8 weeks old Female C57BL/6 mice through subcutaneous immunization with 100 μl of 150 μg MOG35-55 peptide (PolyPeptide Laboratories San Diego, CA, USA) along with heat killed Mycobacterium Tuberculosis 8 mg/ml (strain H37Ra) (BD, Franklin Lakes, NJ, USA), emulsified in PBS and complete Freund's adjuvant (CFA) (Fisher, Hampton, NH, USA). Mice also received two subsequent doses of 200 and 400 ng of pertussis toxin intraperitoneally on day 0 and 2, respectively (List Biological Laboratories, Campbell, CA, USA). […] During the experiment, animals were weighed for weight change and scored for disease progression on a daily basis. The mean body weight and clinical scores were calculated daily for each group. Clinical scores were recorded as follows: 0, healthy; 1, tail atony; 2, partial paralysis of hind limbs; 3, complete paralysis of hind limbs in combination with partial front limb paralysis; 4, tetraplegia; 5, moribund.
The data were expressed as mean±SEM calculated using GraphPad Prism 9 (GraphPad Inc, La Jolla, CA) and the data sets for all experiments represent three to four experimental replicates per group. […]

[2] = tested on: immune cells from brain and spleens; assay: Flow cytometry of immune cells from brain and spleens of EAE mice; type: in vivo, C57BL/6 mice
Protocol: (§1) EAE is a model for human Multiple Sclerosis. EAE was induced in 6-8 weeks old Female C57BL/6 mice through subcutaneous immunization with 100 μl of 150 μg MOG35-55 peptide (PolyPeptide Laboratories San Diego, CA, USA) along with heat killed Mycobacterium Tuberculosis 8 mg/ml (strain H37Ra) (BD, Franklin Lakes, NJ, USA), emulsified in PBS and complete Freund's adjuvant (CFA) (Fisher, Hampton, NH, USA). Mice also received two subsequent doses of 200 and 400 ng of pertussis toxin intraperitoneally on day 0 and 2, respectively (List Biological Laboratories, Campbell, CA, USA). Beginning on day 10, mice received a 100 μL intraperitoneal injection containing either a vehicle (sterile corn oil (CO) with 2% DMSO v/v) or a treatment suspension (10 mg/kg delta-8-THC in sterile CO with 2% DMSO v/v) every day till the end of the experiment. The control mice received the appropriate vehicle. On the appearance of the clinical symptoms, the animals were provided with food and water (Boost and Hydrogel) in the cage bedding to ensure their access to essential nutrients. During the experiment, animals were weighed for weight change and scored for disease progression on a daily basis. The mean body weight and clinical scores were calculated daily for each group. Clinical scores were recorded as follows: 0, healthy; 1, tail atony; 2, partial paralysis of hind limbs; 3, complete paralysis of hind limbs in combination with partial front limb paralysis; 4, tetraplegia; 5, moribund.
BD FACSCelesta flow cytometer was used to quantify the phenotypes of immune cells from brain and spleens. Cells were stained with fluorescently labeled monoclonal antibodies purchased from Biolegend (San Diego, CA). The data obtained from flow cytometer was analyzed on FlowJo software.

[3] = tested on: brain-infiltrating CD4+ T cells; assay: qRT-PCR of brain-infiltrating CD4+ T cells from EAE mice; type: in vivo, C57BL/6 mice
Protocol: as §1
(§2) Mononuclear cells isolated from brain were labeled with Phycoerythrin-conjugated (PE-Conjugated) anti-CD4 antibody purchased from Biolegends. […]
(§3) To analyze gene expression, total RNA was purified from brain infiltrating CD4^+ cells using miRNeasy micro kit according to the manufacturer's instructions. RNA purity and concentration were measured by using Nanodrop spectrophotometer from Thermoscientific. […] The results obtained from qRT-PCR were calculated using delta delta Ct (ΔΔCt) method.

[4] = tested on: brain-infiltrating CD4+ T cells; assay: miRNA microarray of CD4+ T cells isolated from the brain of EAE mice; type: in vivo, C57BL/6 mice
Protocol: as §1, §2, §3

CB1 receptors = CB1 receptors (Homo sapiens, UniProt P21554); conditions: CB1 receptors located in the CNS; cited from earlier work
[5] = tested on: brain infiltrating mononuclear cells; assay: miRNA sequencing (miRNASeq) of brain infiltrating mononuclear cells of EAE mice
[6] = CD4+ T cells isolated from the brain of EAE mice, miRNA microarray

Chain of CB1 receptors (P21554 whole entry): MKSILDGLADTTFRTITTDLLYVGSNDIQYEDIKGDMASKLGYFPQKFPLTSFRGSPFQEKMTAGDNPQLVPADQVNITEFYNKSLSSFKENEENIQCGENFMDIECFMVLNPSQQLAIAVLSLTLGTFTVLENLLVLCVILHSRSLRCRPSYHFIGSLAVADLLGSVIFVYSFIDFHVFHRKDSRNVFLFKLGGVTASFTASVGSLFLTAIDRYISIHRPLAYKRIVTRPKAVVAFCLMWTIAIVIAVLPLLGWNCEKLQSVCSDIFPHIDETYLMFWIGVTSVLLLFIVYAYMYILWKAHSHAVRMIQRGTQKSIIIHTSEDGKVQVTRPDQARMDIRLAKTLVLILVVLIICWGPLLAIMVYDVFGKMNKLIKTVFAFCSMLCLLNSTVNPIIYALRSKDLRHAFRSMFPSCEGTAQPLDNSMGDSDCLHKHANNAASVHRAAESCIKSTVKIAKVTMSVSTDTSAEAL

CCCCCc1cc(O)c2c(c1)OC(C)(C)[C@@H]1CC=C(C)C[C@@H]21 [Δ-8-THC, delta-8-tetrahydrocannabinol]
body weight [1]: increase; also recorded: attenuated | disease clinical scores / paralysis [1]: highly significant reduction; also recorded: attenuated; also recorded: decreased levels of paralysis | body weight ([1]; listed as Δ8-THC): gain weight | IL-17+ CD4+ T cells in the brains ([2]; brain): decrease | RORγt+ (Th17) cells in the brains ([2]; brain): decrease | Th1 cells (T-bet) in the brain ([2]; brain, expression of T-bet): not in the brain; also recorded: decrease | IL-17+ CD4+ T cells in the brains ([2]; brain, listed as Δ8-THC): decreased | RORγt+ (Th17) cells in the brains ([2]; brain, listed as Δ8-THC): decreased | percentage of macrophages in the brain ([2]; brain-infiltrating pro-inflammatory macrophages): decreased | percentage of CD4+ T cells in the brain ([2]; flow cytometry, brain): decrease | percentage of CD4+ T cells in the spleens ([2]; flow cytometry, spleen): decrease | IL-17+ CD4+ T cells in the spleens ([2]; spleen): decreased | RORγt+ (Th17) cells in the spleens ([2]; spleen): decrease | Th1 cells expressing IFN-gamma in the spleens ([2]; spleen): decrease | percentage of macrophages in the spleens ([2]; spleen): decrease | Th1 cells (T-bet) in the spleen ([2]; spleen, expression of T-bet): decrease | RORγt+ (Th17) cells in the spleens ([2]; spleen, listed as Δ8-THC): decreased | Foxp3 expression [3]: increase | IL-10 expression [3]: increased | TGF-β expression [3]: increased | expression of miR-21, miR-27a, miR-29a, miR-30a, miR-31, miR-146a, miR-155, and miR-326 [4, 6]: downregulated | expression of miR-let7, miR-130a, miR-181a, miR-328a and miR-448 [4, 6]: upregulating | miR expression profile ([4]; brain-infiltrating CD4+ T cells from EAE mice, compared to the controls): distinct signature profile | activity at CB1 receptors (CB1 receptors): partial agonist | miRNA expression (miRNASeq) [5]: regulates a distinct set of miRNAs compared to Δ-9-THC; also recorded: unique miRNA signature profile distinct from Δ-9-THC; also recorded: differential expression of miRNAs
